Reference: US20260250325A1, “Antiviral Polypeptide Membrane Fusion Inhibitor, and Preparation Method and Application Thereof” (priority 2025, published 2026)
Where a SMILES comes first, the peptide text is derived from it. The star is where a group is joined. Succinyl(4-O-cholesteryl) = CC(C)CCC[C@@H](C)[C@H]1CC[C@H]2[C@@H]3CC=C4C[C@@H](OC(=O)CCC(=O)*)CC[C@]4(C)[C@H]3CC[C@]12C; X1 = CC(C)CCCC(C)C1CCC2C3CC=C4CC(OC(=O)CCC(=O)*)CCC4(C)C3CCC12C

Columns and labels:
[1] = system: hPIV3 C243 virus strain; format: cell-based, hPIV; conditions: LLC-MK2 cells, hPIV3 C243, plaque reduction; read-out: EC50 against hPIV3 virus
Procedure: Rhesus monkey kidney cells (LLC-MK2) were sourced from the ATCC, with a catalog number CCL-7.1. The cells were cultured in a DMEM culture solution in which 10% fetal bovine serum, 1% non-essential amino acids, 1% sodium pyruvate, 1% L-glutamine, 100 U/ml penicillin, and 100 μg/ml streptomycin were added.
An HPIV-3 plaque experiment culture medium consisted of a DMEM culture solution added with 2% fetal bovine serum, 1% non-essential amino acids, 1% sodium pyruvate, 1% L-glutamine, 100 U/ml penicillin, and 100 μg/ml streptomycin.
The hPIV Type 3 (hPIV3 C243) was sourced from the ATCC, with a catalog number VR-93.
This study used the plaque reduction experiment to detect the in-vitro activity of the test sample against the hPIV3 C243 virus strain, and Human Anti-HPIV3 Monoclonal Antibody, clone PIA174 was an experimental system control. The test sample and a system experimental antibody were tested at 8 concentrations in duplicated wells.
The LLC-MK2 cells were digested with trypsin and then diluted to a concentration of 400,000 cells per milliliter by using a cell culture solution containing 2% serum. The diluted cells were added to a 96-well cell test board, with 100 μL per well, corresponding to 40,000 cells per well. The cells were cultured overnight in a 37° C. incubator with 5% CO2.
On the next day, the sample diluted at a fold ratio and an equal volume of virus (approximately 200 PFU per well) were well mixed and incubated at 37° C. in 5% CO2 for 1 hour. Then, the culture solution in the 96-well cell test board was discarded, the sample virus mixed solution (100 μL) was added to the 96-well cell culture plate, and incubated at 37° C. in 5% CO2 for 2 hours. After 2 h, the sample virus mixed solution was discarded, 200 μL of an experiment culture medium containing the test sample with a corresponding concentration was added, and the culture solution contained 0.8% CMC. A final concentration of DMSO in the culture solution was 0.5%. A control antibody was directly added to the experiment culture solution containing 0.8% CMC. A cell control (cells, without compound treatment or viral infection) and a viral control (cell infection virus, without compound treatment) were set. The cells were cultured for 1 day in the 37° C. incubator with 5% CO2.
The cells were fixed with 4% paraformaldehyde, and then permeabilization was performed with 0.5% Triton X-100. After the plate was washed with DPBS, a hPIV specific antibody (1:2000 dilution) was added and incubated at 37° C. for 1.5 h. Then, a secondary antibody (1:500 dilution) was added and incubated at 37° C. for 1 hour. The secondary antibody was discarded, a TrueBlue solution was added, dyeing was performed for approximately 10 minutes; and the plate was washed with running water and then air-dried, and the number of spots in each well was counted by using a microplate imaging counter.
Raw data was used for calculating the antiviral activity of the samples, and a calculation formula was shown as follows.
% inhibition rate=100−(sample value-cell control average value)/(virus control average value-cell control average value)×100
Non-linear fitting analysis was performed on the inhibition rate of the sample by using GraphPad Prism (version 10), so as to calculate an EC50 value for the sample. A fitting formula was log (inhibitor) vs. response-Variable slope (four parameters).

[2] = Cytotoxicity test in HEp-2 cells (CCK8 cell viability); format: cell-based; conditions: human; HEp-2 cells, CCK8, 1 day; read-out: CC50
Procedure, shortened: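 Compound dilutions (final DMSO 0.5%) were applied for 1 day to HEp-2 cells plated at 30,000 per well the day before. CCK8 signal gave survival relative to cell and medium controls, and a four-parameter log(inhibitor)-response fit yielded CC50.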

Row | Molecule | EC50 [1] [µM] | CC50 at 1 day [2] [µM]
1 | CC[C@H](C)[C@H](NC(=O)[C@H](CCCCN)NC(=O)[C@H](CCCCN)NC(=O)[C@H](CC(C)C)NC(=O)[C@H](CO)NC(=O)[C@H](CCC(=O)O)NC(=O)[C@H](CCC(=O)O)NC(=O)[C@@H](NC(=O)[C@H](CCCCN)NC(=O)[C@H](CCCCN)NC(=O)[C@H](CC(N)=O)NC(=O)[C@@H](NC(=O)[C@H](CCC(=O)O)NC(=O)[C@H](CCC(=O)O)NC(=O)[C@@H](NC(=O)[C@H](CCCCN)NC(=O)[C@H](CCCCN)NC(=O)[C@H](CC(=O)O)NC(=O)[C@H](Cc1ccccc1)NC(=O)[C@H](CCC(=O)O)NC(=O)[C@H](CC(=O)O)NC(=O)[C@H](Cc1c[nH]c2ccccc12)NC(C)=O)[C@@H](C)CC)C(C)C)[C@@H](C)CC)C(=O)N[C@@H](CCC(=O)O)C(=O)N[C@@H](CCC(=O)O)C(=O)N[C@@H](CO)C(=O)N[C@@H](CC(=O)O)C(=O)N[C@@H](CCCCN)C(=O)N[C@@H](CCCCN)C(=O)N[C@@H](CC(C)C)C(=O)N[C@@H](CCC(=O)O)C(=O)N[C@@H](CCC(=O)O)C(=O)N[C@H](C(=O)N[C@@H](CC(N)=O)C(=O)N[C@@H](C)C(=O)N[C@@H](CCC(=O)O)C(=O)N[C@@H](C)C(=O)N[C@@H](C)C(=O)N[C@@H](C)C(=O)N[C@@H](CCCCN)C(=O)N[C@@H](CCCCNC(=O)CCC(=O)O[C@H]1CC[C@@]2(C)C(=CC[C@H]3[C@@H]4CC[C@H]([C@H](C)CCCC(C)C)[C@@]4(C)CC[C@@H]32)C1)C(N)=O)C(C)C [Compound 40] (Ac-WDEFDKKIEEVNKKIEESLKKIEESDKKLEEVNAEAAAKK(Succinyl(4-O-cholesteryl))-NH2) | 0.0222 | 13.1
2 | CC[C@H](C)[C@H](NC(=O)[C@H](CCCCN)NC(=O)[C@H](CCCCN)NC(=O)[C@H](CC(C)C)NC(=O)[C@H](CO)NC(=O)[C@H](CCC(=O)O)NC(=O)[C@H](CCC(=O)O)NC(=O)[C@@H](NC(=O)[C@H](CCCCN)NC(=O)[C@H](CCCCN)NC(=O)[C@H](CC(N)=O)NC(=O)[C@@H](NC(=O)[C@H](CCC(=O)O)NC(=O)[C@H](CCC(=O)O)NC(=O)[C@@H](NC(=O)[C@H](CCCCN)NC(=O)[C@H](CCCCN)NC(=O)[C@H](CC(=O)O)NC(=O)[C@H](Cc1ccccc1)NC(=O)[C@H](CCC(=O)O)NC(=O)[C@H](CC(=O)O)NC(=O)[C@H](Cc1c[nH]c2ccccc12)NC(C)=O)[C@@H](C)CC)C(C)C)[C@@H](C)CC)C(=O)N[C@@H](CCC(=O)O)C(=O)N[C@@H](CCC(=O)O)C(=O)N[C@@H](CO)C(=O)N[C@@H](CC(=O)O)C(=O)N[C@@H](CCCCN)C(=O)N[C@@H](CCCCN)C(=O)N[C@@H](CC(C)C)C(=O)N[C@@H](Cc1c[nH]cn1)C(=O)N[C@@H](CC(N)=O)C(=O)N[C@H](C(=O)N[C@@H](CCC(=O)O)C(=O)N[C@@H](C)C(=O)N[C@@H](C)C(=O)N[C@@H](C)C(=O)N[C@@H](CCCCN)C(=O)N[C@@H](CCCCNC(=O)CCC(=O)O[C@H]1CC[C@@]2(C)C(=CC[C@H]3[C@@H]4CC[C@H]([C@H](C)CCCC(C)C)[C@@]4(C)CC[C@@H]32)C1)C(N)=O)C(C)C [Compound 44] (Ac-WDEFDKKIEEVNKKIEESLKKIEESDKKLHNVEAAAKK(Succinyl(4-O-cholesteryl))-NH2) | 0.0279 | 26.5
3 | Ac-SLEQVNEKINQSLAFIRKSDEINQSDEEVNKSDELLEAAAKK-NH2 [Compound 50] | 0.0348 | 32.6
4 | CC[C@H](C)[C@H](NC(=O)[C@H](CO)NC(=O)[C@H](C)NC(=O)[C@H](CC(=O)O)NC(=O)[C@H](Cc1ccccc1)NC(=O)[C@H](CCC(=O)O)NC(=O)[C@H](CC(=O)O)NC(C)=O)C(=O)N[C@@H](CO)C(=O)N[C@@H](CCC(N)=O)C(=O)N[C@H](C(=O)N[C@@H](CC(N)=O)C(=O)N[C@@H](CCC(=O)O)C(=O)N[C@@H](CCCCN)C(=O)N[C@H](C(=O)N[C@@H](CC(N)=O)C(=O)N[C@@H](CCC(N)=O)C(=O)N[C@@H](CO)C(=O)N[C@@H](CC(C)C)C(=O)N[C@@H](CCC(=O)O)C(=O)N[C@@H](CCC(=O)O)C(=O)N[C@H](C(=O)N[C@@H](CCCNC(=N)N)C(=O)N[C@@H](CCCCN)C(=O)N[C@@H](CO)C(=O)N[C@@H](CC(=O)O)C(=O)N[C@@H](CCC(=O)O)C(=O)N[C@@H](CC(C)C)C(=O)N[C@@H](CC(C)C)C(=O)N[C@@H](Cc1c[nH]cn1)C(=O)N[C@@H](CC(N)=O)C(=O)N[C@@H](CCC(=O)O)C(=O)N[C@@H](C)C(=O)N[C@@H](C)C(=O)N[C@@H](C)C(=O)N[C@@H](CCCCN)C(=O)N[C@@H](CCCCNC(=O)CCC(=O)O[C@H]1CC[C@@]2(C)C(=CC[C@H]3[C@@H]4CC[C@H]([C@H](C)CCCC(C)C)[C@@]4(C)CC[C@@H]32)C1)C(N)=O)[C@@H](C)CC)[C@@H](C)CC)C(C)C [Compound 28] (Ac-DEFDASISQVNEKINQSLEEIRKSDELLHNEAAAKK(Succinyl(4-O-cholesteryl))-NH2) | 0.0544 | 8.8
5 | Ac-WDEFDASISQVNEKINQSLEEIRKSDELLHNVNALEAAAKK(Succinyl(4-O-cholesteryl))-NH2 [Compound 38] | 0.0264 | 10.9
6 | CC[C@H](C)[C@H](NC(=O)[C@H](CCCCN)NC(=O)[C@H](CCCCN)NC(=O)[C@H](CC(C)C)NC(=O)[C@H](CO)NC(=O)[C@H](CCC(=O)O)NC(=O)[C@H](CCC(=O)O)NC(=O)[C@@H](NC(=O)[C@H](CCCCN)NC(=O)[C@H](CCCCN)NC(=O)[C@H](CC(N)=O)NC(=O)[C@@H](NC(=O)[C@H](CCC(=O)O)NC(=O)[C@H](CCC(=O)O)NC(=O)[C@@H](NC(=O)[C@H](CCCCN)NC(=O)[C@H](CCCCN)NC(=O)[C@H](CC(=O)O)NC(=O)[C@H](Cc1ccccc1)NC(=O)[C@H](CCC(=O)O)NC(=O)[C@H](CC(=O)O)NC(C)=O)[C@@H](C)CC)C(C)C)[C@@H](C)CC)C(=O)N[C@@H](CCC(=O)O)C(=O)N[C@@H](CCC(=O)O)C(=O)N[C@@H](CO)C(=O)N[C@@H](CC(=O)O)C(=O)N[C@@H](CCCCN)C(=O)N[C@@H](CCCCN)C(=O)N[C@@H](CC(C)C)C(=O)N[C@@H](CCC(=O)O)C(=O)N[C@@H](CCC(=O)O)C(=O)N[C@H](C(=O)N[C@@H](CCC(=O)O)C(=O)N[C@@H](C)C(=O)N[C@@H](C)C(=O)N[C@@H](C)C(=O)N[C@@H](CCCCN)C(=O)N[C@@H](CCCCNC(=O)CCC(=O)OC1CCC2(C)C(=CCC3C2CCC2(C)C(C(C)CCCC(C)C)CCC32)C1)C(N)=O)C(C)C (some centres unmarked) [Compound 21] (Ac-DEFDKKIEEVNKKIEESLKKIEESDKKLEEVEAAAKK(X1)-NH2) | 0.0213 | 18.3
7 | CC[C@H](C)[C@H](NC(=O)[C@H](CCCCN)NC(=O)[C@H](CCC(=O)O)NC(=O)[C@H](CC(C)C)NC(=O)[C@H](CO)NC(=O)[C@H](CCC(N)=O)NC(=O)[C@H](CC(N)=O)NC(=O)[C@@H](NC(=O)[C@H](CCCCN)NC(=O)[C@H](CCC(=O)O)NC(=O)[C@H](CC(N)=O)NC(=O)[C@@H](NC(=O)[C@H](CCC(N)=O)NC(=O)[C@H](CO)NC(=O)[C@H](C)NC(=O)[C@H](CC(=O)O)NC(=O)[C@H](Cc1ccccc1)NC(=O)[C@@H](NC(=O)[C@H](CC(C)C)NC(=O)[C@H](CCC(=O)O)NC(=O)[C@H](CC(=O)O)NC(=O)[C@H](Cc1ccc(O)cc1)NC(C)=O)C(C)C)C(C)C)[C@@H](C)CC)C(=O)N[C@@H](CCCNC(=N)N)C(=O)N[C@@H](CCCCN)C(=O)N[C@@H](CO)C(=O)N[C@@H](CC(=O)O)C(=O)N[C@@H](CCC(=O)O)C(=O)N[C@@H](CC(C)C)C(=O)N[C@@H](CC(C)C)C(=O)N[C@@H](Cc1c[nH]cn1)C(=O)N[C@@H](CC(N)=O)C(=O)N[C@H](C(=O)NCC(=O)N[C@@H](CO)C(=O)NCC(=O)N[C@@H](CO)C(=O)NCC(=O)N[C@@H](CCCCNC(=O)CCC(=O)O[C@H]1CC[C@@]2(C)C(=CC[C@H]3[C@@H]4CC[C@H]([C@H](C)CCCC(C)C)[C@@]4(C)CC[C@@H]32)C1)C(N)=O)C(C)C [Compound 25] (Ac-YDELVFDASQVNEKINQSLEKIRKSDELLHNVGSGSGK(Succinyl(4-O-cholesteryl))-NH2) | 0.0294 | 7.5
